Experimental data reported in US20110144079A1, “ANTIMICROBIAL SYSTEM” (priority 2008, published 2011).

What was measured:
Type in all cases: cell-based
S. aureus PIII [1] = test: Broth microdilution MIC
Description: (§1) Broth microdilution tests were performed according to NCCLS guidelines. Serial two-fold dilutions of each imidazolium salt (from an original working solution which had been 0.22 μm sterile filtered) in Mueller-Hinton Broth (MHB) (100 μl) were prepared in 96-well micro-titre plates over the range 0.0000625-1% w/v. The inoculum to be tested was prepared by adjusting the turbidity of an actively overnight growing broth culture in MHB to an optical density at 550 nm equivalent to 1×10^8 CFU/ml. The suspension was further diluted to provide a final inoculum density of 2×10^5 CFU/ml in MHB as verified by total viable count. The inoculum to be tested (100 μl, 2×10^5 CFU ml^−1) was added to each well of the microdilution trays which were incubated aerobically for 24 h at 37° C. Positive and negative growth controls were included in every assay (6 replicates). After determining the MICs, minimum bactericidal concentrations (MBCs) were determined by spreading 20 μl of suspension from wells showing no growth onto MHA plates, which were then incubated for 24 h and examined for 99.9% killing.

P. aeruginosa PA01 [2] = test: Broth microdilution MIC/MBC; conditions: for MBC: P. aeruginosa PA01, 99.9% killing; for MIC: P. aeruginosa PA01, 24 h at 37° C., read-out: MIC
Description: as §1

C. tropicalis NCTC 7393 [3] = test: Broth microdilution MIC/MBC; conditions: for MBC: C. tropicalis NCTC 7393, 99.9% killing; for MIC: C. tropicalis NCTC 7393, 24 h at 37° C.
Description: as §1

P. mirabilis NCTC 12442 [4] = test: Broth microdilution MIC/MBC; conditions: for MBC: P. mirabilis NCTC 12442, 99.9% killing; for MIC: P. mirabilis NCTC 12442, 24 h at 37° C.
Description: as §1

E-MRSA 15 [5] = test: Broth microdilution MIC/MBC; conditions: for MBC: E-MRSA 15, 99.9% killing; for MIC: E-MRSA 15, 24 h at 37° C.
Description: as §1

S. aureus ATCC 29213 = test: Broth microdilution MIC/MBC; conditions: for MBC: S. aureus ATCC 29213, 99.9% killing; for MIC: S. aureus ATCC 29213, 24 h at 37° C.
Description: as §1

[6] = test system: S. epidermidis ATCC 12228; test: Broth microdilution MIC/MBC; conditions: for MBC: S. epidermidis ATCC 12228, 99.9% killing; for MIC: S. epidermidis ATCC 12228, 24 h at 37° C.
Description: as §1

E. coli NCTC 8196 [7] = test: Broth microdilution MIC/MBC; conditions: for MBC: E. coli NCTC 8196, 99.9% killing; for MIC: E. coli NCTC 8196, 24 h at 37° C.
Description: as §1

[8] = test system: S. epidermidis ATCC 35984; test: Broth microdilution MIC/MBC; conditions: for MBC: S. epidermidis ATCC 35984, 99.9% killing; for MIC: S. epidermidis ATCC 35984, 24 h at 37° C.
Description: as §1

K. aerogenes NCTC 7427 [9] = test: Broth microdilution MIC/MBC; conditions: for MBC: K. aerogenes NCTC 7427, 99.9% killing; for MIC: K. aerogenes NCTC 7427, 24 h at 37° C.
Description: as §1

B. cereus [10] = test: Broth microdilution MIC/MBC; conditions: for MBC: 99.9% killing; for MIC: 24 h at 37° C.
Description: as §1

P. aeruginosa PA01 [11] = test: Biofilm assay (Calgary Biofilm Device), MBEC; conditions: P. aeruginosa PA01 24 h biofilm, 24 h challenge
Description: (§2) Biofilms of each test organism were grown in the Calgary Biofilm Device (commercially available as the MBEC Assay™ for Physiology & Genetics, Innovotech Inc., Edmonton, Alberta, Canada). The device, a micro-titre plated based assay, consists of two parts; a microtitre plate containing the inoculated test medium and a polystyrene lid with 96 identical pegs on which the microbial biofilm forms under gyrorotary incubation. The biofilm assay was conducted according to the MBEC™ assay protocol as supplied by the manufacturer, with slight modifications. Inocula of each test organism were prepared in MHB as described above and adjusted to provide a final inoculum density of ˜10^7 CFU ml^−1 (as confirmed by viable count). 150 μl of the inoculated media was transferred to each well of the 96-well microtitre plate and the assay plate lid, bearing 96 pegs was placed into the microtitre plate. The MBEC assay plates were placed in a gyrorotary incubator (37° C., 95% relative humidity) for 24 h to permit growth and comparison of 24 h biofilms of each test strain. Positive and negative growth controls were included in each plate (6 replicates). Initial and 24 h planktonic viable counts were measured, as were 24 h biofilm counts, expressed as CFU peg^−1, according to manufacturers instructions. After 24 h, the peg lid of the MBEC assay plate was gently rinsed three times. After rinsing, the peg lid of the MBEC assay was transferred to a ‘challenge’ plate. Serial dilutions of each imidazolium salt were prepared in 200 μl of MHB containing various concentrations of IL in each well. Positive growth control and sterility control were included in each assay plate. […] Biofilms were dislodged into recovery media by sonication for 5 minutes and the peg lid discarded. The recovery plate is incubated overnight and visually checked after 24 h for turbidity. In addition, optical density measurements for each plate were recorded at 550 nm. Clear wells were taken as evidence of biofilm eradication and the MBEC value was assigned as the lowest concentration at which no growth was observed after 24 h incubation. Plates were incubated for a further 24 h to confirm biofilm eradication concentrations.

C. tropicalis NCTC 7393 [12] = test: Biofilm assay (Calgary Biofilm Device), MBEC; conditions: C. tropicalis NCTC 7393 24 h biofilm, 24 h challenge
Description: as §2

P. mirabilis NCTC 12442 [13] = test: Biofilm assay (Calgary Biofilm Device), MBEC; conditions: P. mirabilis NCTC 12442 24 h biofilm, 24 h challenge
Description: as §2

E-MRSA 15 [14] = test: Biofilm assay (Calgary Biofilm Device), MBEC; conditions: E-MRSA 15 24 h biofilm, 24 h challenge
Description: as §2

E. coli NCTC 8196 [15] = test: Biofilm assay (Calgary Biofilm Device), MBEC; conditions: E. coli NCTC 8196 24 h biofilm, 24 h challenge
Description: as §2

S. aureus PIII [16] = test: Biofilm assay (Calgary Biofilm Device), MBEC; conditions: S. aureus PIII 24 h biofilm, 24 h challenge
Description: as §2

[17] = test system: S. epidermidis ATCC 35984; test: Biofilm assay (Calgary Biofilm Device), MBEC; conditions: S. epidermidis ATCC 35984 24 h biofilm, 24 h challenge
Description: as §2

K. aerogenes NCTC 7427 [18] = test: Biofilm assay (Calgary Biofilm Device), MBEC; conditions: K. aerogenes NCTC 7427 24 h biofilm, 24 h challenge
Description: as §2

B. cereus [19] = test: Biofilm assay (Calgary Biofilm Device), MBEC; conditions: B. cereus 24 h biofilm, 24 h challenge
Description: as §2

Row | MIC (S. aureus PIII [1]) [µM] | MIC (P. aeruginosa PA01 [2]) [µM] | MIC (C. tropicalis NCTC 7393 [3]) [µM] | MIC (P. mirabilis NCTC 12442 [4]) [µM] | MIC (E-MRSA 15 [5]) [µM] | MIC (E. coli NCTC 8196 [7]) [µM] | MIC [8] [µM] | MIC (K. aerogenes NCTC 7427 [9]) [µM] | MIC (B. cereus [10]) [µM] | Compound | MBC (P. aeruginosa PA01 [2]) [µM] | MBC (C. tropicalis NCTC 7393 [3]) [µM] | MBEC (P. aeruginosa PA01 [11]) [µM] | MBEC (C. tropicalis NCTC 7393 [12]) [µM] | MBEC (P. mirabilis NCTC 12442 [13]) [µM] | MBEC (E-MRSA 15 [14]) [µM] | MBEC (E. coli NCTC 8196 [15]) [µM] | MBEC (S. aureus PIII [16]) [µM] | MBEC [17] [µM] | MBEC (K. aerogenes NCTC 7427 [18]) [µM] | MBEC (B. cereus [19]) [µM] | other results
1 | 25.81 | 51.64 | 12.9 | 25.81 | 25.8 | 25.81 | 12.9 | 12.9 | 51.63 | CCCCCCCCCCCC[n+]1cccc2ccccc21.[Br-] [1-alkyl-3-quinolinium bromides 12] | 90.33 | 25.8 | 413.97 | 413.87 | 1655.88 | 827.94 | 827.94 | 619.5 | 413.97 | 981.25 | 774.25 | MBC (P. mirabilis NCTC 12442 [4]): 51.6 µM; MBC (E-MRSA 15 [5]): 25.8 µM; MBC (S. aureus ATCC 29213): 51.6 µM; MIC (S. aureus ATCC 29213): 25.81 µM; MBC [6]: 25.8 µM; MIC [6]: 12.9 µM; MBC (E. coli NCTC 8196 [7]): 38.7 µM; MBC [8]: 25.8 µM; MBC (K. aerogenes NCTC 7427 [9]): 38.7 µM; MBC (B. cereus [10]): 77.4 µM
2 | 5.8 | 23.95 | 3 | 5.8 | 5.8 | 11.6 | 5.8 | 5.8 | 23.95 | CCCCCCCCCCCCCC[n+]1cccc2ccccc21.[Br-] [1-alkyl-3-quinolinium bromides 14] | 23.95 | 3 | 136.66 | 68.33 | 546.64 | 136.66 | 136.66 | 91.11 | 68.33 | 136.66 | 273.32 | MBC (P. mirabilis NCTC 12442 [4]): 5.8 µM; MBC (E-MRSA 15 [5]): 5.8 µM; MBC (S. aureus ATCC 29213): 5.8 µM; MIC (S. aureus ATCC 29213): 5.8 µM; MBC [6]: 5.8 µM; MIC [6]: 3 µM; MBC (E. coli NCTC 8196 [7]): 11.6 µM; MBC [8]: 5.8 µM; MBC (K. aerogenes NCTC 7427 [9]): 11.6 µM; MBC (B. cereus [10]): 29.75 µM
3 | 209.76 | 419.52 | 104.88 | 104.88 | 209.76 | 104.88 | 104.88 | 104.88 | 419.52 | CCCCCCCCCCCCCCCCCC[n+]1cccc2ccccc21.[Br-] [1-alkyl-3-quinolinium bromides 18] |  |  | 6712.32 | 1678.08 | 3356.16 | 1678.08 | 1678.08 | 3356.16 | 1678.08 | 6712.32 | 3356.16 | 

The remaining lines, values behind:

Row | Compound | MIC (S. aureus PIII [1]) [µM] | MIC (P. aeruginosa PA01 [2]) [µM] | MIC (C. tropicalis NCTC 7393 [3]) [µM] | MIC (P. mirabilis NCTC 12442 [4]) [µM] | MIC (E-MRSA 15 [5]) [µM] | MIC (E. coli NCTC 8196 [7]) [µM] | MIC [8] [µM] | MIC (K. aerogenes NCTC 7427 [9]) [µM] | MIC (B. cereus [10]) [µM] | MBC (P. aeruginosa PA01 [2]) [µM] | MBC (C. tropicalis NCTC 7393 [3]) [µM] | MBEC (P. aeruginosa PA01 [11]) [µM] | MBEC (C. tropicalis NCTC 7393 [12]) [µM] | MBEC (P. mirabilis NCTC 12442 [13]) [µM] | MBEC (E-MRSA 15 [14]) [µM] | MBEC (E. coli NCTC 8196 [15]) [µM] | MBEC (S. aureus PIII [16]) [µM] | MBEC [17] [µM] | MBEC (K. aerogenes NCTC 7427 [18]) [µM] | MBEC (B. cereus [19]) [µM] | other results
4 | CCCCCCCC[n+]1cccc2ccccc21.[Br-] [1-alkyl-3-quinolinium bromides 8] | 242 | 484.78 | 242 | 242 | 242 | 121.2 | 121.2 | 60 | 484.78 | 605 | 363 | 8315 | 7826 | 7826 | 7826 | 8315 | 7826 | 3913 | 9782 | 7826 | MBC (P. mirabilis NCTC 12442 [4]): 363 µM; MBC (E-MRSA 15 [5]): 484 µM; MBC (S. aureus ATCC 29213): 484 µM; MIC (S. aureus ATCC 29213): 242 µM; MBC [6]: 242 µM; MIC [6]: 121.2 µM; MBC (E. coli NCTC 8196 [7]): 242 µM; MBC [8]: 242 µM; MBC (K. aerogenes NCTC 7427 [9]): 242 µM; MBC (B. cereus [10]): 726 µM
5 | CCCCCCCCCC[n+]1cccc2ccccc21.[Br-] [1-alkyl-3-quinolinium bromides 10] | 111.5 | 223 | 55.74 | 111.5 | 55.74 | 55.74 | 55.74 | 55.74 | 223 | 446 | 111.48 | 1792 | 1792 | 3584 | 1792 | 3584 | 1956 | 896 | 4568 | 3584 | MBC (P. mirabilis NCTC 12442 [4]): 167.22 µM; MBC (E-MRSA 15 [5]): 111.48 µM; MBC (S. aureus ATCC 29213): 111.48 µM; MIC (S. aureus ATCC 29213): 111.5 µM; MBC [6]: 111.48 µM; MIC [6]: 55.74 µM; MBC (E. coli NCTC 8196 [7]): 167.22 µM; MBC [8]: 111.48 µM; MBC (K. aerogenes NCTC 7427 [9]): 167.22 µM; MBC (B. cereus [10]): 278.7 µM
